Laboratory results published in patent US7247748B2, “Amide compounds and methods of using the same” (SmithKline Corporation, priority 2002, dated 2007).

How the values were obtained:
[1] = molecular target: T1, LXRα ligand binding domain (Homo sapiens, UniProt Q13133); assay: Ligand Sensing Assay for LXRα agonist activity; format: biochemical; details: 1 μM; over a background reading of 10000 fluorescence units
T1 construct: His tag; made in house; host or cells: E. coli BL21(DE3) by analogy with Test Method 1 (inferred)
T1 sequence (Q13133 183-447): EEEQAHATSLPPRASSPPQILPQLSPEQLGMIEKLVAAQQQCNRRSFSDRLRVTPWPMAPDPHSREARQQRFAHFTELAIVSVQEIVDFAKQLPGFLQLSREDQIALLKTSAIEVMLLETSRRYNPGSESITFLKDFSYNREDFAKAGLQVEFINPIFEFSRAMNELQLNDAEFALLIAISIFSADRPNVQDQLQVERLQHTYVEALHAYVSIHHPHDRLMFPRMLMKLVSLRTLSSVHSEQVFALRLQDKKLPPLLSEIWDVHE
T1 sequence (Q15788 676-700 partner): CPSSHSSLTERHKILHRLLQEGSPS
Method: (§1) Test Method 1: Ligand Sensing Assay (LiSA) for LXRβ Agonist Activity
(§2) This assay measures the recruitment of a peptide derived from the coactivator protein, SRC1, to the agonist-bound LXR[…]. Peptides derived from other nuclear receptor cofactors may be similarly prepared and assayed.
The biotinylated protein was incubated for 20–25 minutes at a concentration of 5 nM in assay buffer (50 mM NaF, 50 mM MOPS-pH 7.5, 0.1 mg/ml FAF-BSA, 0.05 mM CHAPS, 10 mM DTT) with equimolar amounts of streptavidin-AlloPhycoCyanin (APC, Molecular Probes). […]
49 uL of the protein/peptide mixture was added to each well of an assay plate containing 1 ul of test compound serial diluted in 100% DMSO. […] The plates were incubated at room temp 2-hours and then counted on a Wallac Victor V fluorescent plate reader. […]
The assay for LXRα was run according to the procedures of Test Method 1, above using his-tagged LXRα ligand binding domain (amino acids 183–447 of Genbank accession number U22662, with the 14th amino acid corrected to A from R). In this assay 1 μM 24(S),25-epoxycholesterol gave a reading of 20000 fluorescence units over a background reading of 10000 fluorescence units.

[2] = molecular target: T2, human LXRβ ligand binding domain (Homo sapiens, UniProt P55055); assay: Ligand Sensing Assay (LiSA) for LXRβ agonist activity (SRC1 peptide recruitment); format: biochemical; details: 1 μM; over a background reading of 10000 fluorescence units
T2 construct: made in house; host or cells: E. coli BL21(DE3), vector pRSETa
T2 sequence (P55055 184-460 limits assumed): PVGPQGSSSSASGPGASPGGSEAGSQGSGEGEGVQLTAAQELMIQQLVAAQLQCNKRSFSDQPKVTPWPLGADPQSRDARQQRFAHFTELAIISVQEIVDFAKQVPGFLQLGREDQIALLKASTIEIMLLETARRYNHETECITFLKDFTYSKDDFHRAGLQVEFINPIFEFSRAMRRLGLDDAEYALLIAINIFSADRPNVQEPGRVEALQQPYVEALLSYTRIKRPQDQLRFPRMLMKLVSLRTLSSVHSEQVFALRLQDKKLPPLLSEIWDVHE
T2 sequence (Q15788 676-700 partner limits assumed): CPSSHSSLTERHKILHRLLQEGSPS
Source text: as §1, §2
To generate the human LXRβ ligand binding domain suitable for LiSA, a modified polyhistidine tag (MKKGHHHHHHG) (SEQ ID No. 1) was fused in frame to the human LXRβ ligand binding domain (amino acids 185–461 of Genbank accession number U07132) and subcloned into the expression vector pRSETa (Invitrogen) under the control of an IPTG inducible T7 promoter. The human LXRβ ligand binding domain was expressed in E. coli strain BL21(DE3). Ten-liter fermentation batches were grown in Rich PO4 media with 0.1 mg/mL Ampicillin at 25° C. for 12 hours, cooled to 9° C. and held at that temperature for 36 hours to a density of OD600=14. […]
Typically 25–50 g of cell paste is resuspended in 250–500 mL TBS, pH 8.0 (25 mM Tris, 150 mM NaCl). […] After washing to baseline absorbance with equilibration buffer, the column is washed with approximately one column volume of TBS pH […] containing 95 mM imidazole. […] After washing to baseline absorbance with the dilution buffer the protein is eluted with a gradient from 50–500 mM NaCl. […]

In the case of `C[C@H](CC[C@@H]1OC1(C)C)[C@H]1CC[C@H]2[C@@H]3CC=C4C[C@@H](O)CC[C@]4(C)[C@H]3CC[C@]12C` [24(S),25-epoxycholesterol], the reading [1] is reported as 20000 fluorescence units and the reading [2] is reported as 20000 fluorescence units.
